# Source: patent EP2343074A1, “Use of purine analogues for treating airway diseases” (Merck Serono S.A., priority 2009, dated 2011)
# Experiments:
# [1] = test system: patient having asthma with recurring asthma attacks; test: Treatment of an asthma patient with oral cladribine tablets; format: in vivo; details: dosage regimen disclosed in WO2006067141
# Method: A patient having asthma with recurring asthma attacks is treated with oral cladribine tablets and following the dosage regimen disclosed in WO2006067141. As a result, the symptoms of asthma and airway hyperresponsiveness are reduced in this patient.
# [2] = test system: BALB/c mice; format: in vivo; details: female BALB/c mice
# Method: Female BALB/c mice, aged 10-12 wk, are housed in environmentally controlled specific pathogen-free conditions for 1 wk before study and for the duration of the experiments, which are performed according to J Appl Physiol, VOL 97, 2004, 2258-2265. Accordingly, mice are sensitized with intraperitoneal ovalbumin conjugated to aluminum potassium sulfate, as described in Am J Respir Cell Mol Biol 21: 473-479, 1999. Sensitized mice are subjected to either brief or chronic periods of allergen exposure, as described in Am J Respir Cell Mol Biol 27: 526-535, 2002. Control mice are subjected to the same sensitization protocol but are receiving saline challenges.
# Allergen-challenged and control mice are studied at 24 h after the final exposure (at day 21) in the brief allergen-challenge protocol and at week 4 after the final exposure in the chronic allergen-challenge protocol. […]
# At day 21 or week 4, respectively, the underlying contributors to airway responsiveness, namely airway reactivity [slope of increase in total respiratory system resistance (Rrs) for a given increase in MCh dose], airway sensitivity (lowest dose of MCh to produce bronchoconstriction), and the maximum inducible bronchoconstriction (maximum Rrs) are measured following brief or chronic allergen challenge. These components of airway responsiveness are measured based on the response of Rrs to saline and increasing (10, 33, 100, and 330 µg/kg) intravenous doses of MCh. Rrs is measured by using the flow interrupter technique, modified for use in mice, and described in Am J Respir Cell Mol Biol 21: 473-479, 1999, Am J Respir Cell Mol Biol 27: 526-535, 2002 and J Appl Physiol 89: 413-421, 2000. Total respiratory system resistance (Rrs) is measured in response to increasing doses of intravenous methacholine (MCh). Using the resulting Rrs-MCh dose-response curve, indexes of airway reactivity (Slope Rrs), airway sensitivity, or the lowest dose to produce bronchoconstriction (Break Rrs) and maximal degree of bronchoconstriction (Max Rrs) are measured. […]
smiles,measurement,setting,value
"Nc1nc(Cl)nc2c1ncn2[C@H]1C[C@H](O)[C@@H](CO)O1 [cladribine, 2-chloro-9-(2'-deoxy-beta-D-ribofuranosyl)-adenine]",symptoms of asthma and airway hyperresponsiveness,[1],reduced
same,"signs of asthma, increased airway reactivity and maximal bronchoconstriction","[2]; brief or chronic allergen exposure, cladribine intraperitoneally 15 mg/kg per injection, as compared to the control",beneficial to reduce
same,asthma related symptoms such as increased bronchoconstriction and allergen-induced development of AHR,"[2]; brief or chronic allergen exposure, cladribine intraperitoneally on days 1, 5 and 9, 15 mg/kg body weight per injection, versus phosphate buffer without cladribine",reduces or abrogates
same,host toxicity,"[2]; cladribine intraperitoneally on days 1, 5 and 9, 15 mg/kg body weight per injection",little or no host toxicity
